Measured values published in patent US20160362408A1 (Bayer Pharma Aktiengesellschaft, priority 2013, published 2016).
Counter-ions that a name gives are not always drawn.

target: T1, recombinant guanylate cyclase reporter cell line (Rattus norvegicus, UniProt P19686+P20595); assay: Effect on a recombinant guanylate cyclase reporter cell line; assay type: cell-based; conditions: MEC = minimum effective concentration; in some cases mean values for individual determinations
T1 construct: expressed in transfected cells
T1 sequence (P19686 1-690): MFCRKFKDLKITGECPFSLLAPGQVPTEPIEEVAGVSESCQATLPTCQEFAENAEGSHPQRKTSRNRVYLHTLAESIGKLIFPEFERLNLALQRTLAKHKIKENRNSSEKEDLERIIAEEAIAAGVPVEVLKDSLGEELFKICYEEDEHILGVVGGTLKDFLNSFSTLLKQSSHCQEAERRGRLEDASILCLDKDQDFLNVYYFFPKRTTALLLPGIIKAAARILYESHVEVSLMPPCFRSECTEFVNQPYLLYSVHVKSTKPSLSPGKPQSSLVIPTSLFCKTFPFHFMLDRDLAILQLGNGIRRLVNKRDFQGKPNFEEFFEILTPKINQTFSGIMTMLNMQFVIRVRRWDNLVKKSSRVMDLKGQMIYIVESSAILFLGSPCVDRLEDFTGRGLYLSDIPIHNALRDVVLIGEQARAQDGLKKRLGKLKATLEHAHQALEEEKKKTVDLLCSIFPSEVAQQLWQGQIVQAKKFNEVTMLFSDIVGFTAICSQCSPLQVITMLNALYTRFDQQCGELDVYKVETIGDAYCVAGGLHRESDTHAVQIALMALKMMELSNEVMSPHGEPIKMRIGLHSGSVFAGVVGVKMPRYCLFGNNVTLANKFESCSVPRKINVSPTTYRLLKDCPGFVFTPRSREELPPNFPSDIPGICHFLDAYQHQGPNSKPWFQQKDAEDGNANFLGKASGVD
T1 sequence (P20595 1-619): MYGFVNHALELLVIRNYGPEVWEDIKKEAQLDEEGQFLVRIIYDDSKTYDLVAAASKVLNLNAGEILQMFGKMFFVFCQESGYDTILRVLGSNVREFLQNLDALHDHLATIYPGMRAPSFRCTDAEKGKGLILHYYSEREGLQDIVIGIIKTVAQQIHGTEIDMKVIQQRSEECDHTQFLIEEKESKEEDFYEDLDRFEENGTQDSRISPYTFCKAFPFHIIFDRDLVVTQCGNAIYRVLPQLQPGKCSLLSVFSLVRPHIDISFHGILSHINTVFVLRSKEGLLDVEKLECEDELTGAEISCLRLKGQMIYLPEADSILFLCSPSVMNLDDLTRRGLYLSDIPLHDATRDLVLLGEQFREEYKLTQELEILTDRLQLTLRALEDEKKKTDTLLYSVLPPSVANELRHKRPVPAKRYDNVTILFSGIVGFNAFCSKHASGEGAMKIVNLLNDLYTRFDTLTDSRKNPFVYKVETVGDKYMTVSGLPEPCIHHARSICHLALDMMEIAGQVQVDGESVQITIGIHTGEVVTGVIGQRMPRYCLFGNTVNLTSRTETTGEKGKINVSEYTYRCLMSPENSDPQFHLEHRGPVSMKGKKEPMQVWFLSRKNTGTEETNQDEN
How it was run: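 Compounds tested in a recombinant guanylate cyclase reporter cell line per a published method. Potency expressed as minimum effective concentration (MEC), sometimes as mean of individual determinations.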

Question: With `Cc1cc(OCc2c(F)cccc2F)c2nc(C)c(C(=O)Nc3ccc(F)cc3CN)n2c1` [Example 113, N-[2-(Aminomethyl)-4-fluorophenyl]-8-[(2,6-difluorobenzyl)oxy]-2,6-dimethylimidazo[1,2-a]pyridine-3-carboxamide] as the compound, how does the MEC read?
Answer: 0.3 µM

Question: Which MEC does the source give for `Cc1nc2c(OCc3c(F)cccc3F)cccn2c1C(=O)Nc1n[nH]c2ccc(C(F)(F)F)cc12` [Example 114, 8-[(2,6-Difluorobenzyl)oxy]-2-methyl-N-[5-(trifluoromethyl)-1H-indazol-3-yl]imidazo[1,2-a]pyridine-3-carboxamide] here?
Answer: 0.3 µM

Question: How did the MEC turn out when `Cc1nc2c(OCc3c(F)cccc3F)cccn2c1C(=O)Nc1n[nH]c2ccc(F)cc12` [Example 115, 8-[(2,6-Difluorobenzyl)oxy]-N-(5-fluoro-1H-indazol-3-yl)-2-methylimidazo[1,2-a]pyridine-3-carboxamide] was run?
Answer: 1.0 µM

Question: How did the MEC turn out when `Cc1nc2c(OCc3c(F)cccc3F)cccn2c1C(=O)Nc1c(C(F)(F)F)nn(CCO)c1C` [Example 116, 8-[(2,6-Difluorobenzyl)oxy]-N-[1-(2-hydroxyethyl)-5-methyl-3-(trifluoromethyl)-1H-pyrazol-4-yl]-2-methylimidazo[1,2-a]pyridine-3-carboxamide] was run?
Answer: 0.5 µM

Question: `Cc1nc2c(OCc3c(F)cccc3F)cc(Cl)cn2c1C(=O)Nc1c(C(F)(F)F)nn(CCO)c1C` [Example 117, 6-chloro-8-[(2,6-difluorobenzyl)oxy]-N-[1-(2-hydroxyethyl)-5-methyl-3-(trifluoromethyl)-1H-pyrazol-4-yl]-2-methylimidazo[1,2-a]pyridine-3-carboxamide] was tested. Which MEC did it give?
Answer: 0.1 µM

Question: With `Cc1nc2c(OCc3c(F)cccc3F)cccn2c1C(=O)Nc1cnn(C)c1` [Example 119, 8-[(2,6-difluorobenzyl)oxy]-2-methyl-N-(1-methyl-1H-pyrazol-4-yl)imidazo[1,2-a]pyridine-3-carboxamide] as the compound, how does the MEC read?
Answer: 1.0 µM

Question: With `CCn1ccc(NC(=O)c2c(C)nc3c(OCc4c(F)cccc4F)cccn23)n1` [Example 121, 8-[(2,6-difluorobenzyl)oxy]-N-(1-ethyl-1H-pyrazol-3-yl)-2-methylimidazo[1,2-a] pyridine-3-carboxamide] as the compound, how does the MEC read?
Answer: 1.0 µM

Question: For `Cc1nc2c(OCc3c(F)cccc3F)cccn2c1C(=O)Nc1cc(C)n(C)n1` [Example 122, 8-[(2,6-difluorobenzyl)oxy]-N-(1,5-dimethyl-1H-pyrazol-3-yl)-2-methylimidazo[1,2-a] pyridine-3-carboxamide], which MEC is on record?
Answer: 3.0 µM

Question: `Cc1nc2c(OCc3c(F)cccc3F)cccn2c1C(=O)Nc1ccncc1C(F)(F)F` [Example 123, 8-[(2,6-difluorobenzyl)oxy]-2-methyl-N-[3-(trifluoromethyl)pyridin-4-yl)imidazo[1,2-a]pyridine-3-carboxamide trifluoroacetate] was tested. Which MEC did it give?
Answer: 1.0 µM

Question: Which MEC does the source give for `Cc1nc2c(OCC3CCCCC3)cccn2c1C(=O)Nc1cnn(CCO)c1` [Example 124, 8-(cyclohexylmethoxy)-N-[1-(2-hydroxyethyl)-1H-pyrazol-4-yl]-2-methylimidazo[1,2-a]pyridine-3-carboxamide] here?
Answer: 1.0 µM

Question: For `Cc1ccnc(NC(=O)c2c(C)nc3c(OCc4c(F)cccc4F)cccn23)n1` [Example 126, 8-[(2,6-Difluorobenzyl)oxy]-2-methyl-N-(4-methylpyrimidin-2-yl)imidazo[1,2-a]pyridine-3-carboxamide], which MEC is on record?
Answer: 1.0 µM

Question: For `Cc1nc2c(OCc3c(F)cccc3F)cccn2c1C(=O)Nc1cnn(CCN2CCC(F)(F)CC2)c1` [Example 127, 8-[(2,6-Difluorobenzyl)oxy]-N-{1-[2-(4,4-difluoropiperidin-1-yl)ethyl]-1H-pyrazol-4-yl}-2-methylimidazo[1,2-a]pyridine-3-carboxamide], which MEC is on record?
Answer: 1.0 µM

Question: For `Cc1nc2c(OCc3c(F)cccc3F)cccn2c1C(=O)Nc1cnn(CCN2CCCC2)c1` [Example 128, 8-[(2,6-difluorobenzyl)oxy]-2-methyl-N-{1-[2-(pyrrolidin-1-yl)ethyl]-1H-pyrazol-4-yl}imidazo [1,2-a]pyridine-3-carboxamide], which MEC is on record?
Answer: 3.0 µM

Question: For `Cc1nc2c(OCc3c(F)cccc3F)cccn2c1C(=O)Nc1cnn(CCN2CCS(=O)(=O)CC2)c1` [Example 129, 8-[(2,6-difluorobenzyl)oxy]-N-{1-[2-(1,1-dioxidothiomorpholin-4-yl)ethyl]-1H-pyrazol-4-yl}-2-methylimidazo[1,2-a] pyridine-3-carboxamide], which MEC is on record?
Answer: 10 µM

Question: How did the MEC turn out when `Cc1nc2c(OCc3c(F)cccc3F)cccn2c1C(=O)Nc1cnn(CCN2CCC(O)CC2)c1` [Example 130, 8-[(2,6-difluorobenzyl)oxy]-N-{1-[2-(4-hydroxypiperidin-1-yl)ethyl]-1H-pyrazol-4-yl}-2-methylimidazol[1,2-a] pyridine-3-carboxamide] was run?
Answer: 10 µM

Question: How did the MEC turn out when `Cc1nc2c(OCc3c(F)cccc3F)cccn2c1C(=O)Nc1cnn(CCN2CCOCC2)c1` [Example 132, 8-[(2,6-difluorobenzyl)oxy]-2-methyl-N-{1-[2-(morpholin-4-yl)ethyl]-1H-pyrazol-4-yl} imidazo[1,2-a]pyridine-3-carboxamide] was run?
Answer: 1.0 µM

Question: `Cc1nc2c(OCc3c(F)cccc3F)cccn2c1C(=O)Nc1cnn(CCN2CCN(C)CC2)c1` [Example 133, 8-[(2,6-difluorobenzyl)oxy]-2-methyl-N-{1-[2-(4-methylpiperazin-1-yl)ethyl]-1H-pyrazol-4-yl)imidazo [1,2-a]pyridine-3-carboxamide] was tested. Which MEC did it give?
Answer: 10 µM

Question: Which MEC does the source give for `Cc1nc2c(OCc3c(F)cccc3F)cccn2c1C(=O)Nc1cnn(CCN(C)C)c1` [Example 134, 8-[(2,6-difluorobenzyl)oxy]-N-{1-[2-(dimethylamino)ethyl]-1H-pyrazol-4-yl}-2-methylimidazol[1,2-a] pyridine-3-carboxamide] here?
Answer: 3.0 µM

Question: How did the MEC turn out when `Cc1nc2c(OCc3c(F)cccc3F)cccn2c1C(=O)Nc1cnn(CCS(C)(=O)=O)c1` [Example 135, 8-[(2,6-Difluorobenzyl)oxy]-2-methyl-N-{1-[2-(methylsulphonyl)ethyl]-1H-pyrazol-4-yl}imidazo[1,2-a]pyridine-3-carboxamide] was run?
Answer: 3.0 µM

Question: With `Cc1nc2c(OCc3c(F)cccc3F)cccn2c1C(=O)Nc1cnn(CCOC(N)=O)c1` [Example 138, 2-{4-[({8-[(2,6-Difluorobenzyl)oxy]-2-methylimidazo[1,2-a]pyridin-3-yl}carbonyl)amino]-1H-pyrazol-1-yl}ethyl carbamate] as the compound, how does the MEC read?
Answer: 10 µM

Question: Which MEC does the source give for `Cc1nc2c(OCc3c(F)cccc3F)cccn2c1C(=O)Nc1cnn(CCOS(N)(=O)=O)c1` [Example 139, 2-{4-[({8-[(2,6-Difluorobenzyl)oxy]-2-methylimidazo[1,2-a]pyridin-3-yl}carbonyl)amino]-1H-pyrazol-1-yl}ethyl sulphamate trifluoroacetate] here?
Answer: 3.0 µM

Question: For `Cc1nc2c(OCc3c(F)cccc3F)cccn2c1C(=O)Nc1cnn(CCF)c1` [Example 140, 8-[(2,6-Difluorobenzyl)oxy]-N-[1-(2-fluoroethyl)-1H-pyrazol-4-yl]-2-methylimidazo[1,2-a]pyridine-3-carboxamide], which MEC is on record?
Answer: 1.0 µM

Question: For `Cc1nc2c(OCc3c(F)cccc3F)cc(Cl)cn2c1C(=O)Nc1cnn(CCF)c1` [Example 141, 6-chloro-8-[(2,6-difluorobenzyl)oxy]-N-[1-(2-fluoroethyl)-1H-pyrazol-4-yl]-2-methylimidazo[1,2-a]pyridine-3-carboxamide], which MEC is on record?
Answer: 1.0 µM

Question: `O=C(Nc1cnn(CCO)c1)c1c(C2CC2)nc2c(OCc3c(F)cccc3F)cccn12` [Example 142, 2-Cyclopropyl-8-[(2,6-difluorobenzyl)oxy]-N-[1-(2-hydroxyethyl)-1H-pyrazol-4-yl]imidazo[1,2-a]pyridine-3-carboxamide] was tested. Which MEC did it give?
Answer: 10 µM

Question: How did the MEC turn out when `Cc1nc2c(OCc3c(F)cccc3F)cccn2c1C(=O)Nc1cc(F)cc(F)c1N` [Example 143, N-(2-Amino-3,5-difluorophenyl)-8-[(2,6-difluorobenzyl)oxy]-2-methylimidazo[1,2-a]pyridine-3-carboxamide] was run?
Answer: 0.3 µM

Question: Which MEC does the source give for `Cc1nc(NC(=O)c2c(C)nc3c(OCc4c(F)cccc4F)cccn23)oc1C` [Example 144, 8-[(2,6-difluorobenzyl)oxy]-N-(4,5-dimethyl-1,3-oxazol-2-yl)-2-methylimidazo[1,2-a]pyridine-3-carboxamide] here?
Answer: 3.0 µM
